Data published in patent US8470829B2 (priority 2004, dated 2013).
Like-named read-outs stand apart in the source and are kept apart here.

Legend:
human androgen receptor [1] = biological target: T1, human androgen receptor (Homo sapiens, UniProt P10275); assay: Measurement of agonist effect on androgen receptor (reporter gene assay, 11A11B2 cells); type: cell-based; conditions: compound concentration showing a transcription activity of 5% (0.1 nmol/L DHT = 100%, assay medium alone = 0%), 48 hours
T1 construct: expressed in transfected cells
T1 sequence (P10275 1-920): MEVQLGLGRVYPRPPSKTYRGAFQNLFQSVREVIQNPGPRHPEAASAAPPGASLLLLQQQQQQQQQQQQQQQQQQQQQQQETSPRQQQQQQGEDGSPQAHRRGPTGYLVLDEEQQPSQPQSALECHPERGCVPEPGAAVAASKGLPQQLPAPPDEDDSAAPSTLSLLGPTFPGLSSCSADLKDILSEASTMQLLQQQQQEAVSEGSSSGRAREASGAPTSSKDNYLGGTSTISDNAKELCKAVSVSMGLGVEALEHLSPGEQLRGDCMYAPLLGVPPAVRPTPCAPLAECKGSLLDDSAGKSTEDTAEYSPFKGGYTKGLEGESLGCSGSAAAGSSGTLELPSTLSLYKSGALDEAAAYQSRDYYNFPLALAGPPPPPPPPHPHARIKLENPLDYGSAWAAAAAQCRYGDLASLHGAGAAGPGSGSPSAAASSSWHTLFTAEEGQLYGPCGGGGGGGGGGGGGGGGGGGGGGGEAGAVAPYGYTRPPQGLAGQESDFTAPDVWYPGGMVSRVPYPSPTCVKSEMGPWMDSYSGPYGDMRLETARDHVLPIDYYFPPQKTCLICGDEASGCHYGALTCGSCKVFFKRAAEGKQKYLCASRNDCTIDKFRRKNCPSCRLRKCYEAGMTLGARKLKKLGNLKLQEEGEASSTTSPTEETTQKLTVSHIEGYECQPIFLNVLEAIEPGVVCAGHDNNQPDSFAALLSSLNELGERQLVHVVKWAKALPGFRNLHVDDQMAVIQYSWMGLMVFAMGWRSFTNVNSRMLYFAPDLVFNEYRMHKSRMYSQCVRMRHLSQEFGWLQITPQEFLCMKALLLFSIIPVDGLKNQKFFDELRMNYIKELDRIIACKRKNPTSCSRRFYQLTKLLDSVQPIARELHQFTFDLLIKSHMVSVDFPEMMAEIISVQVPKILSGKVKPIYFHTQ
Protocol: (§1) HeLa cells (purchased from Dai-Nippon Seiyaku K. K.) were cultured overnight in Dulbecco's Modified Eagle Medium containing no phenol red, but containing 3% charcoal-treated fetal bovine serum (hereafter referred to as DCC-FBS) (this medium is hereafter referred to as phenol-red-free DMEM). An MMTV-Luc-Hyg vector (reporter plasmid with mouse mammary tumor virus long terminal repeat, containing an androgen response element and a hygromycin resistance gene: a vector obtained by substituting a chloramphenicol acetyl transferease gene of a GM-CAT vector (A.T.C.C No. 67282) purchased from the A.T.C.C. with the firefly luciferase gene, and inserting a hygromycin resistance gene as a drug resistant gene), and pSG5-hAR-neo (human androgen receptor expression vector: a vector having an androgen receptor gene under the control of the SV40 promoter, and having a neomycin resistance gene inserted as a drug resistance gene) were transfected into the HeLa cells using an FuGENE™ 6 Transfection Reagent (obtained from Roche).
(§2) The clone cells thus obtained (11A11B2 cells) were maintained and propagated using DMEM containing 400 μg/mL neomycin, 200 μg/mL hygromycin and 10% FBS, and were propagated using phenol-red-free DMEM containing 10% DCC-FBS three to four days prior to the performance of an androgen receptor reporter gene assay.
The 11A11B2 cells were inoculated in a white clear-bottomed 96-well microplate (COSTAR) so that the cell concentration was 1.0×10^4/well, and were cultured overnight using phenol-red-free DMEM containing 3% DCC-FBS (hereafter referred to as the assay medium). Samples of the assay medium containing the compounds of the Examples and compounds of the Comparative Examples were added so that the final concentrations of the compounds of the Examples and compounds of the Comparative Examples were 1, 10, 100, 1,000 and 10,000 nmol/L), and the cells were cultured for 48 hours, after which the transcription activity value was measured. The transcription activity was measured using a Bright-Glo™ Luciferase Assay System (Promega).
The transcription activity rates of the compounds of the Examples were calculated from the transcription activity measured by the abovementioned method, with the transcription activity value obtained at 0.1 nmol/L DHT taken as 100%, and the transcription activity value in the case of the assay medium alone taken as 0%. The compound concentration showing a transcription activity of 5% (EC5 value) was calculated from a linear equation for two points on either side of 5%.

human androgen receptor [2] = biological target: T1, human androgen receptor; assay: Investigation of antagonist effect on androgen receptor (reporter gene assay, 11A11B2 cells, with DHT); type: cell-based
Protocol: as §1, §2
The 11A11B2 cells were inoculated in a white clear-bottomed 96-well microplate (COSTAR) so that the cell concentration was 1.0×10^4/well, and were cultured overnight. The assay medium containing DHT was added so that the final concentration of DHT was 0.1 nmol/L, and samples of the assay medium containing the compounds of the Examples or compounds of the Comparative Examples were added so that the final concentrations of the compounds of the Examples or compounds of the Comparative Examples were 1, 10, 100, 1,000 and 10,000 nmol/L, respectively. After culturing for 48, hours, the transcription activity values were measured. The transcription activity was measured using a Bright-Glo™ Luciferase Assay System (Promega).
The transcription activity rates of the compounds of the Examples were calculated from the transcription activity measured by the abovementioned method, with the transcription activity value obtained at 0.1 nmol/L DHT taken as 100%, and the transcription activity value in the case of the assay, medium alone taken as 0%.

[3] = with 0.1 nmol/L DHT, transcription activity rate of Test Example 1 subtracted, 11A11B2 cells, 48 hours, read-out: IC50

CC1(C)C(=O)N(c2ccc(C#N)c(C(F)(F)F)c2)C(=O)N1c1ccc(Cl)c(NC(=O)OCCN)c1 [Example 37, {2-chloro-5-[3-(4-cyano-3-trifluoromethylphenyl)-5,5-dimethyl-2,4-dioxoimidazolidin-1-yl]phenyl}-carbamic acid 2-aminoethyl ester]
EC5 (human androgen receptor [1]): >10 µM | IC50 (human androgen receptor [2]; [3]): 0.7 µM

CCCNC(=O)N1CCC(N2C(=S)N(c3ccc(C#N)c(C(F)(F)F)c3)C(=O)C2(C)C)CC1 [Example 39, 4-[3-(1-n-propylaminocarbonylpiperidin-4-yl)-4,4-dimethyl-5-oxo-2-thioxoimidazolidin-1-yl]-2-trifluoromethylbenzonitrile]
EC5 (human androgen receptor [1]): >10 µM | IC50 (human androgen receptor [2]; [3]): 0.9 µM

CCCNC(=O)N1CCC(N2C(=S)N(c3ccc(C#N)c(Cl)c3)C(=O)C2(C)C)CC1 [Example 41, 4-[3-(1-n-propylaminocarbonylpiperidin-4-yl)-4,4-dimethyl-5-oxo-2-thioxoimidazolidin-1-yl]-2-chlorobenzonitrile]
EC5 (human androgen receptor [1]): >10 µM | IC50 (human androgen receptor [2]): 0.5 µM

CC1(C)C(=O)N(c2ccc(C#N)c(C(F)(F)F)c2)C(=S)N1c1ccc(Cl)c(NC(=O)OCCO)c1 [Example 46, {2-chloro-5-[3-(4-cyano-3-trifluoromethylphenyl)-5,5-dimethyl-4-oxo-2-thioxoimidazolidin-1-yl]phenyl}-carbamic acid 2-hydroxyethyl ester]
EC5 (human androgen receptor [1]): >10 µM | IC50 (human androgen receptor [2]): 0.3 µM

CC1(C)C(=O)N(c2ccc(C#N)c(Cl)c2)C(=S)N1c1ccc(Cl)c(NC(=O)OCCO)c1 [Example 47, {2-chloro-5-[3-(4-cyano-3-chlorophenyl)-5,5-dimethyl-4-oxo-2-thioxoimidazolidin-1-yl]phenyl}carbamic acid 2-hydroxyethyl ester]
EC5 (human androgen receptor [1]): >10 µM | IC50 (human androgen receptor [2]): 0.3 µM

COc1cc(N2C(=O)C(C)(C)N(c3ccc(Cl)c(NC(=O)OCCO)c3)C2=S)ccc1C#N [Example 48, {2-chloro-5-[3-(4-cyano-3-methoxyphenyl)-5,5-dimethyl-4-oxo-2-thioxoimidazolidin-1-yl]phenyl}-carbamic acid 2-hydroxyethyl ester]
EC5 (human androgen receptor [1]): >10 µM | IC50 (human androgen receptor [2]; [3]): 0.5 µM

CC1(C)C(=O)N(c2ccc(C#N)c(C(F)(F)F)c2)C(=S)N1c1ccc(Cl)c(NC(=O)OCC(O)CO)c1 (stereo not shown) [Example 49, {2-chloro-5-[3-(4-cyano-3-trifluoromethylphenyl)-5,5-dimethyl-4-oxo-2-thioxoimidazolidin-1-yl]phenyl}-carbamic acid 2,3-dihydroxypropyl ester]
EC5 (human androgen receptor [1]): >10 µM | IC50 (human androgen receptor [2]): 0.3 µM

CC1(C)C(=O)N(c2ccc(C#N)c(Cl)c2)C(=S)N1c1ccc(Cl)c(NC(=O)OCC(O)CO)c1 (stereo not shown) [Example 50, {2-chloro-5-[3-(4-cyano-3-chlorophenyl)-5,5-dimethyl-4-oxo-2-thioxoimidazolidin-1-yl]phenyl}-carbamic acid 2,3-dihydroxypropyl ester]
EC5 (human androgen receptor [1]): >10 µM | IC50 (human androgen receptor [2]): 0.3 µM

CN(C)CCOC(=O)Nc1cc(N2C(=S)N(c3ccc(C#N)c(C(F)(F)F)c3)C(=O)C2(C)C)ccc1Cl [Example 52, {2-chloro-5-[3-(4-cyano-3-trifluoromethylphenyl)-5,5-dimethyl-4-oxo-2-thioxoimidazolidin-1-yl]phenyl}-carbamic acid 2-dimethylaminoethyl ester]
EC5 (human androgen receptor [1]): >10 µM | IC50 (human androgen receptor [2]): 0.3 µM

COc1cc(N2C(=O)C(C)(C)N(c3ccc(Cl)c(NC(=O)OCCN(C)C)c3)C2=S)ccc1C#N [Example 54, {2-chloro-5-[3-(4-cyano-3-methoxyphenyl)-5,5-dimethyl-4-oxo-2-thioxoimidazolidin-1-yl]phenyl}-carbamic acid 2-dimethylaminoethyl ester]
EC5 (human androgen receptor [1]): >10 µM | IC50 (human androgen receptor [2]; [3]): 0.5 µM

CC1(C)C(=O)N(c2ccc(C#N)c(C(F)(F)F)c2)C(=S)N1c1ccc(Cl)c(NC(=N)N)c1 [Example 55, N-{2-chloro-5-[3-(4-cyano-3-trifluoromethylphenyl)-5,5-dimethyl-4-oxo-2-thioxoimidazolidin-1-yl]phenyl}guanidine]
EC5 (human androgen receptor [1]): >10 µM | IC50 (human androgen receptor [2]): 0.7 µM

CC1(C)C(=O)N(c2ccc(C#N)c(C(F)(F)F)c2)C(=S)N1c1ccc(S(N)(=O)=O)cc1 [Example 56, 4-[3-(4-cyano-3-trifluoromethylphenyl)-5,5-dimethyl-4-oxo-2-thioxoimidazolidin-1-yl]benzenesulfonamide]
EC5 (human androgen receptor [1]): >10 µM | IC50 (human androgen receptor [2]; [3]): 0.4 µM

CN(C)CCOC(=O)Nc1ccc(N2C(=S)N(c3ccc(C#N)c(C(F)(F)F)c3)C(=O)C2(C)C)cn1 [Example 58, {5-[3-(4-cyano-3-trifluoromethylphenyl)-5,5-dimethyl-4-oxo-2-thioxoimidazolidin-1-yl]pyridin-2-yl}carbamic acid 2-dimethylaminoethyl ester]
EC5 (human androgen receptor [1]): >10 µM | IC50 (human androgen receptor [2]): 0.5 µM

CC1(C)C(=O)N(c2ccc(C#N)c(C(F)(F)F)c2)C(=S)N1c1ccc(NC(=O)OCCO)nc1 [Example 60, {5-[3-(4-cyano-3-trifluoromethylphenyl)-5,5-dimethyl-4-oxo-2-thioxoimidazolidin-1-yl]pyridin-2-yl}carbamic acid 2-hydroxyethyl ester]
EC5 (human androgen receptor [1]): >10 µM | IC50 (human androgen receptor [2]; [3]): 0.3 µM

CN(C)CCNC(=O)Nc1nc2cc(N3C(=S)N(c4ccc(C#N)c(Cl)c4)C(=O)C3(C)C)ccc2s1 [Example 61, 1-{5-[3-(3-chloro-4-cyanophenyl)-5,5-dimethyl-4-oxo-2-thioxoimidazolidin-1-yl]benzothiazol-2-yl}-3-(2-dimethylaminoethyl)urea]
EC5 (human androgen receptor [1]): >10 µM | IC50 (human androgen receptor [2]): 0.3 µM

CC1(C)C(=O)N(c2ccc(C#N)c(Cl)c2)C(=S)N1c1ccc2sc(NC(=O)NCCO)nc2c1 [Example 63, 1-{5-[3-(3-chloro-4-cyanophenyl)-5,5-dimethyl-4-oxo-2-thioxoimidazolidin-1-yl]benzothiazol-2-yl}-3-(2-hydroxyethyl)urea]
EC5 (human androgen receptor [1]): >10 µM | IC50 (human androgen receptor [2]): 0.3 µM

CN(C)CCOC(=O)Nc1nc2cc(N3C(=S)N(c4ccc(C#N)c(Cl)c4)C(=O)C3(C)C)ccc2s1 [Example 64, {5-[3-(3-chloro-4-cyanophenyl)-5,5-dimethyl-4-oxo-2-thioxoimidazolidin-1-yl]benzothiazol-2-yl}carbamic acid 2-dimethylaminoethyl ester]
EC5 (human androgen receptor [1]): >10 µM | IC50 (human androgen receptor [2]; [3]): 0.2 µM
